Assay results as given in ChEMBL document CHEMBL1201862, “PubChem BioAssay data set” (2004).
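Exposure lasted 48 hours, with cells grown in 96-well plates and compounds tested at five concentrations. Abbreviation: GI50, concentration required for 50% inhibition of growth.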 Activity calls are given as the source filed them. No stated cut-off is given here; in the data, active = GI50 up to about 1.1 µM and inactive = higher.

Legend:
Test in all cases: NCI-60 cell line screen, 48 h
A498 = test system: A498
BT-549 = test system: BT-549
COLO 205 = test system: COLO 205
HCT-15 = test system: HCT-15
IGROV-1 = test system: IGROV-1
K562 = test system: K562
LOX IMVI = test system: LOX IMVI
MDA-N = test system: MDA-N
NCI-H23 = test system: NCI-H23
OVCAR-8 = test system: OVCAR-8
RPMI-8226 = test system: RPMI-8226
RXF 393 = test system: RXF 393
SF-295 = test system: SF-295
SK-MEL-28 = test system: SK-MEL-28
SK-OV-3 = test system: SK-OV-3
SR = test system: SR
SW-620 = test system: SW-620
TK-10 = test system: TK-10
UACC-62 = test system: UACC-62
UO-31 = test system: UO-31

Row | SMILES | GI50 (A498) | GI50 (BT-549) | GI50 (COLO 205) | GI50 (HCT-15) [µM] | GI50 (IGROV-1) | GI50 (K562) | GI50 (LOX IMVI) | GI50 (MDA-N) | GI50 (NCI-H23) | GI50 (OVCAR-8) | GI50 (RPMI-8226) | GI50 (RXF 393) | GI50 (SF-295) | GI50 (SK-MEL-28) | GI50 (SK-OV-3) | GI50 (SR) | GI50 (SW-620) | GI50 (TK-10) | GI50 (UACC-62) | GI50 (UO-31)
1 | O=[N+]([O-])C(=C(\Cl)NCCO)/C(Cl)=C(/Cl)Br | 4.66 µM (inactive) | 1.77 µM (inactive) | 1.38 µM (inactive) | 1.32 | 2.77 µM (inactive) | 0.665 µM (active) | 0.885 µM (active) | 1.83 µM (inactive) | 2.9 µM (inactive) | 1.87 µM (inactive) | 1.48 µM (inactive) | 2.6 µM (inactive) | 12.1 µM (inactive) | 2.1 µM (inactive) | 15 µM (inactive) | 1.11 µM (active) | 1.17 µM (inactive) | 2.16 µM (inactive) | 1.75 µM (inactive) | 2.79 µM (inactive)
2 | O=C(CC(c1ccccc1)c1c(O)c2ccccc2oc1=O)c1ccccc1 (stereo not given) | > 61.9 µM (inactive) | 49.5 µM (inactive) | 59.7 µM (inactive) | 78.9 | > 100 µM (inactive) | 61.5 µM (inactive) | > 67.8 µM (inactive) | > 84.5 µM (inactive) | 53.3 µM (inactive) | > 100 µM (inactive) | 56.1 µM (inactive) | > 53.1 µM (inactive) | > 76.7 µM (inactive) | 72.1 µM (inactive) | 67.9 µM (inactive) | 44.6 µM (inactive) | > 100 µM (inactive) | > 100 µM (inactive) | 38.4 µM (inactive) | 98.4 µM (inactive)
3 | CCCc1cc(-c2ccc(-c3cc(CCC)c(C=O)[nH]3)s2)[nH]c1C=O | > 69.5 µM (inactive) | 25.9 µM (inactive) | 4.83 µM (inactive) | 8.61 | > 100 µM (inactive) | 5.48 µM (inactive) | 5.89 µM (inactive) | 4.34 µM (inactive) | > 37.1 µM (inactive) | > 49.1 µM (inactive) | > 100 µM (inactive) | 30.1 µM (inactive) | 11.9 µM (inactive) | 63 µM (inactive) | > 56.9 µM (inactive) | 2.14 µM (inactive) | > 55.8 µM (inactive) | > 100 µM (inactive) | > 32.6 µM (inactive) | 22.6 µM (inactive)
4 | Cc1cc(=O)oc2cc(OC(=O)Nc3ccccc3)ccc12 | 64.4 µM (inactive) | 22.9 µM (inactive) | 53.5 µM (inactive) | 50.9 | 69.8 µM (inactive) | 35.6 µM (inactive) | > 100 µM (inactive) | > 100 µM (inactive) | 69.5 µM (inactive) | 53.3 µM (inactive) | 25.4 µM (inactive) | 92.7 µM (inactive) | > 100 µM (inactive) | > 100 µM (inactive) | 70.6 µM (inactive) | 29.5 µM (inactive) | 62.8 µM (inactive) | > 100 µM (inactive) | 41.2 µM (inactive) | 40.4 µM (inactive)
5 | S=C1Cc2cc3ccccc3nc2-c2ccccc2N1 | 6.31 µM (inactive) | > 33.8 µM (inactive) | 54 µM (inactive) | 42.3 | 29 µM (inactive) | > 100 µM (inactive) | 33.4 µM (inactive) | 5.13 µM (inactive) | 23.9 µM (inactive) | 11.9 µM (inactive) | > 50.7 µM (inactive) | 8.65 µM (inactive) | 22.7 µM (inactive) | 27.5 µM (inactive) | 5.68 µM (inactive) | 29 µM (inactive) | 37 µM (inactive) | 24.3 µM (inactive) | 8.45 µM (inactive) | 9.06 µM (inactive)
6 | NC(=O)c1cc2ccc(O)cc2o/c1=N/NC(=O)c1ccccc1 | 40.5 µM (inactive) | 52.2 µM (inactive) | > 100 µM (inactive) | 79.3 | 46.7 µM (inactive) | 75.5 µM (inactive) | 47.8 µM (inactive) | 72.8 µM (inactive) | 89.9 µM (inactive) | 67.8 µM (inactive) | 77.3 µM (inactive) | 40.6 µM (inactive) | > 100 µM (inactive) | 76.4 µM (inactive) | 61.2 µM (inactive) | 22.2 µM (inactive) | 64.3 µM (inactive) | 36.1 µM (inactive) | 62.2 µM (inactive) | 67 µM (inactive)
7 | Nc1nc(N)c(/N=N/c2ccc(C(=O)O)c(O)c2)c(N)n1 | > 100 µM (inactive) | > 100 µM (inactive) | > 100 µM (inactive) | > 100 | > 100 µM (inactive) | < 0.01 µM (active) | > 100 µM (inactive) | > 100 µM (inactive) | > 100 µM (inactive) | > 100 µM (inactive) | > 100 µM (inactive) | > 100 µM (inactive) | > 100 µM (inactive) | > 100 µM (inactive) | > 100 µM (inactive) | > 100 µM (inactive) | > 100 µM (inactive) | > 100 µM (inactive) | > 100 µM (inactive) | > 100 µM (inactive)
8 | O=C(Sc1c(-c2ccccc2)c(=O)n(-c2ccccc2)c(=S)n1-c1ccccc1)c1ccco1 | > 100 µM (inactive) | > 100 µM (inactive) | > 100 µM (inactive) | > 89.1 | > 100 µM (inactive) | 34 µM (inactive) | > 100 µM (inactive) | > 90.6 µM (inactive) | > 100 µM (inactive) | > 100 µM (inactive) | 33.8 µM (inactive) | > 100 µM (inactive) | > 100 µM (inactive) | > 100 µM (inactive) | > 100 µM (inactive) | 29.2 µM (inactive) | > 57.5 µM (inactive) | > 100 µM (inactive) | > 76.4 µM (inactive) | > 100 µM (inactive)
